Results on 2 compounds are retold here after patent publication US10189772B2, “Mixtures of chelating agents including an L-enantiomer-rich MGDA, and process for making such mixtures” (BASF SE, priority 2015, dated 2019).

Counter-ions that a name gives are not always drawn. Like-named read-outs stand apart in the source and are kept apart here.

For data set [1] the following is noted: aqueous solution, room temperature; cited from earlier work.
The conditions of data set [2]: ambient temperature, no visible precipitation after 2 weeks. The method, then: In each case, the solubility was calculated to refer to pure MGDA, without hydrate water.
In addition, the concentrations of the saturated solutions at ambient temperature in dependence of the ee value of MGDA and depending on the concentration of (B) were determined.

Take `CC(C(=O)O)N(CC(=O)O)CC(=O)O` (racemic) [racemic MGDA trisodium salt, methyl glycine diacetic acid]: the “concentration of solutions that can be made and stored” value in data set [1] was “about 40 % by weight”.

Consider `CC(C(=O)O)N(CC(=O)O)CC(=O)O` (centres unmarked) [MGDA-Na3, methyl glycine diacetic acid], for which the “concentration of saturated solutions” value in data set [2] (ee value of MGDA-Na3 11 %, addition of VDA-Na3 5.5 weight-%) came to 49 weight-%; in data set [2] (ee value of MGDA-Na3 39 %, addition of VDA-Na3 2.8 weight-%), 48 weight-%; in data set [2] (ee value of MGDA-Na3 39 %, addition of VDA-Na3 5.5 weight-%), 47 weight-%; in data set [2] (ee value of MGDA-Na3 39 %, addition of VDA-Na3 8.3 weight-%), 43 weight-%; in data set [2] (ee value of MGDA-Na3 82 %, addition of VDA-Na3 2.8 weight-%) it was 58 weight-%; in data set [2] (ee value of MGDA-Na3 82 %, addition of VDA-Na3 8.3 weight-%), 53 weight-%. The “concentration of saturated solutions” value is listed as 46 weight-% in data set [2] (ee value of MGDA-Na3 82 %, addition of VDA-Na3 zero weight-%); 57 weight-% in data set [2] (ee value of MGDA-Na3 96 %, addition of VDA-Na3 5.5 weight-%); 49 weight-% in data set [2] (ee value of MGDA-Na3 96 %, addition of VDA-Na3 zero weight-%); at most 40 weight-% in data set [2] (ee value of MGDA-Na3 zero %, addition of VDA-Na3 zero weight-%).
